The values that follow are results of earlier work, collected in patent US20200306335A1, “A Dietary Composition Comprising Plant-Based Sources of Fatty Acids” (priority 2017, published 2020).

In series [1] the target is T1, 5 alpha-R Type 1 (Homo sapiens, UniProt P18405).
T1 sequence (P18405 1-259): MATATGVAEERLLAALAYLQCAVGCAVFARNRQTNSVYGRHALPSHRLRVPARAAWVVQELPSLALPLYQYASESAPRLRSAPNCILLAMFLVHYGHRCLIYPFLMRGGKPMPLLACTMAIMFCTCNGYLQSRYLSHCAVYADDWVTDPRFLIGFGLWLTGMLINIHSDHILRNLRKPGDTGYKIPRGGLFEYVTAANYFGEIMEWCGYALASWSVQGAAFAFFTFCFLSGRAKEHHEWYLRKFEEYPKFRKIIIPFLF
Conditions: result in words, from a study cited in the background.

The target in series [2] is T2, 5 alpha-R Type 2 (Homo sapiens, UniProt P31213).
T2 sequence (P31213 1-254): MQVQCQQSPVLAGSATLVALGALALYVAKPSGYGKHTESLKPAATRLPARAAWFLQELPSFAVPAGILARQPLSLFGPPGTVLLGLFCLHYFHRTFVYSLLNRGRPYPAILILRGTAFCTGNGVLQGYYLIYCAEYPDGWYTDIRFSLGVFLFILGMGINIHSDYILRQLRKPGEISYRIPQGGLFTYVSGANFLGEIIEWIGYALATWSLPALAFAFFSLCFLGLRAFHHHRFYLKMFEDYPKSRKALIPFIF
Conditions: result in words, from a study cited in the background.

As to `CCCCCCCCCCCC(=O)O` [Lauric acid, lauric acid], the “inhibition of 5 alpha-R Type 1” value in series [1] is recorded as “active inhibitor”. Also, in series [2], the “inhibition of 5 alpha-R Type 2” value is “active inhibitor”.
Take `CCCCCCCCCCCCCC(=O)O` [Myristic acid, myristic acid]: the “inhibition of 5 alpha-R Type 2” value in series [2] is “strongly inhibit”.
Turning to `CCCCCCCC/C=C\CCCCCCCC(=O)O` [Oleic, oleic acid], in series [1], the “inhibition of 5 alpha-R Type 1” value is given as “active inhibitors”. For the same molecule, the “inhibition of 5 alpha-R Type 2” value in series [2] is given as “little to no inhibitory activity”.
For the molecule `CCCCC/C=C\C/C=C\CCCCCCCC(=O)O` [linoleic acid], the “inhibition of 5 alpha-R Type 1” value in series [1] is on record as “active inhibitors”. Also, in series [2], the “inhibition of 5 alpha-R Type 2” value is recorded as “little to no inhibitory activity”.
